{"source": "ChEMBL document CHEMBL3301361", "about": "“Experimental in vitro DMPK and physicochemical data on a set of publicly disclosed compounds”"}
{"assay": "physchem", "settings": "octan-1-ol/water, pH 7.4, LogD7.4"}
{"smiles": "C1=C(c2cc3ccccc3o2)C2CCN1CC2", "logD": 2.59}
{"smiles": "CCN(CCCOCCOCCc1ccccc1)CCc1ccc(O)c2nc(O)sc12", "logD": 2.45}
{"smiles": "Cc1cc(C)cc(CCOCCS(=O)(=O)NCCNCCc2ccc(O)c3nc(O)sc23)c1", "logD": 2.45}
{"smiles": "CC(C)C(NC(=O)Cn1c(-c2ccc(F)cc2)ncc(NC(=O)OCc2ccccc2)c1=O)C(=O)C(F)(F)F", "note": "(centres undefined)", "logD": 2.47}
{"smiles": "CC(C)c1ncc(NC(=O)OCc2ccccc2)c(=O)n1CC(=O)NC(C(=O)C(F)(F)F)C(C)C", "note": "(centres undefined)", "logD": 2.63}
{"smiles": "NC1CCc2cc(OC(=O)c3ccccc3)c(OC(=O)c3ccccc3)cc2C1", "note": "(centres undefined)", "logD": 2.6}
{"smiles": "O=C(COCc1ccncc1)N1CCN(c2ccc(Cl)cc2F)CC1", "logD": 2.55}
{"smiles": "O=C(COCc1ccncc1)N1CCC(c2ccc(Cl)cc2Cl)CC1", "logD": 2.63}
{"smiles": "COc1ccc(-c2cc(O)c3cc(Cl)ccc3n2)cc1", "logD": 2.7}
{"smiles": "CC(N)(COP(=O)(O)O)C(=O)O", "note": "(centres undefined)", "logD": 2.5}
{"smiles": "CCCC(=O)C1(c2ccccc2)CCN(C(=O)[C@@H](Cc2ccc(OC)cc2)NC(=O)[C@@H](N)Cc2cncn2C)CC1", "logD": 2.51}
{"smiles": "O=C1NC(c2ccc(Br)cc2)Nc2ccccc21", "note": "(centres undefined)", "logD": 2.68}
{"smiles": "Cc1ccc(-n2c(C)cc(C(=O)NS(=O)(=O)c3ccc(C)cc3)c2C)cc1", "logD": 2.5}
{"smiles": "CCOc1ccc(-c2cnc3n2CCC3)cc1", "logD": 2.65}
{"smiles": "CCN(CC)S(=O)(=O)c1ccc(NC(=O)C(C)(O)C(F)(F)F)cc1", "note": "(centres undefined)", "logD": 2.63}
{"smiles": "O=C1CCOc2nc(CCc3ccccc3)ccc21", "logD": 2.5}
{"smiles": "COC(=O)N1CCOc2cc(COc3ccccc3)cnc21", "logD": 2.5}
{"smiles": "COc1cc2nnc(C(N)=O)c(Nc3cc(C)ccc3F)c2cc1N1CCN(C)CC1", "logD": 2.57}
{"smiles": "O=C(N[C@@H](c1ccccc1)[C@@H]1CCCCN1)c1cccc(C(F)(F)F)c1Cl", "logD": 2.61}
{"smiles": "COc1ccccc1N1CCN(Cc2c(Br)c(=O)n(-c3ccccc3)n2C)CC1", "logD": 2.5}
{"smiles": "COc1cc(F)ccc1-c1cncc(CNC2CCCCC2)c1", "logD": 2.6}
{"smiles": "COc1cc(F)ccc1-c1cncc(CNC(=O)c2cnccn2)c1", "logD": 2.5}
{"smiles": "Oc1ccc(-c2nc3ccccc3nc2-c2ccc(O)cc2)cc1", "logD": 2.7}
{"smiles": "N#Cc1ccccc1Oc1ccc(C(=O)NCc2ccncc2)cc1", "logD": 2.57}
{"smiles": "C=CCCCCCCCCC(=O)N[C@H]1CCC(=O)NC1=O", "logD": 2.64}
{"smiles": "CCCCN(CCNC[C@H](O)c1ccc(O)c2[nH]c(=O)sc12)C(=O)CCOCCc1ccccc1", "logD": 2.51}
{"smiles": "CCC(c1nc2ccsc2c(=O)n1Cc1ccccc1)N(CCCN)C(=O)c1ccc(C)nc1", "note": "(centres undefined)", "logD": 2.56}
{"smiles": "CCOC(=O)c1ccc(COC2CN(c3ccc(C)nn3)C2)cc1", "logD": 2.5}
{"smiles": "COc1cccc(C(=O)NCCCOc2cccc3ccc(N)nc23)c1", "logD": 2.46}
{"smiles": "COc1cc2ncnc(Nc3cc(NC(=O)c4ccnc(N5CCOCC5)c4)ccc3C)c2cc1OCCN1CCCC1", "logD": 2.7}
{"smiles": "Cc1ccc(NC(=O)c2cccc(N(C)C)c2)cc1NC(=O)c1ccc(O)cc1", "logD": 2.65}
{"smiles": "COc1cc(C(=O)Nc2cc(NC(=O)c3cccc(N(C)C)c3)ccc2C)cc(OC)c1OC", "logD": 2.54}
{"smiles": "COc1ccc(NC(=O)c2ccc(-c3ccncc3)c(C)c2)cc1N1CCN(C)CC1", "logD": 2.56}
{"smiles": "Clc1ccccc1-c1c[nH]nn1", "logD": 2.68}
{"smiles": "Cc1ccc(C(=O)NC2CCN(c3cc(C(N)=O)cc(Cl)n3)CC2)[nH]1", "logD": 2.64}
{"smiles": "O=C(Cc1ccc(O)cc1)c1ccc(O)cc1O", "logD": 2.54}
{"smiles": "Cc1ccc(-c2c[nH]nn2)cc1", "logD": 2.58}
{"smiles": "CN[C@@H](C)C(=O)N[C@H](C(=O)N[C@H]1CCCN(CCCc2ccccc2)C1)C1CCCCC1", "logD": 2.6}
{"smiles": "CN[C@@H](C)C(=O)N[C@H](C(=O)N[C@H]1CCCN(CCc2cccc(F)c2)C1)C1CCCCC1", "logD": 2.64}
{"smiles": "O=C(Nc1ccc(Nc2ccc(NC(=O)c3ccccc3)c3c2C(=O)c2ccccc2C3=O)c2c1C(=O)c1ccccc1C2=O)c1ccccc1", "logD": 2.63}
{"smiles": "CNc1c(Br)cnc2[nH]c(-c3ccc(O)cc3)nc12", "logD": 2.47}
{"smiles": "NC(=O)c1cnc2[nH]c(-c3ccc(OCCN4CCCCC4)cc3)nc2c1NCCCNC(=O)C1CCC1", "logD": 2.48}
{"smiles": "Nc1cc2n[nH]c(=O)n2c2cc(-c3ccco3)ccc12", "logD": 2.48}
{"smiles": "O=C(Nc1ccc(Cl)c(Cl)c1)N1CCN(C[C@@H]2CCCN(CC3CC3)C2)CC1", "logD": 2.54}
{"smiles": "CCN1CCO[C@@H](CN2CCN(C(=O)Nc3ccc(Cl)c(Cl)c3)CC2)C1", "logD": 2.68}
{"smiles": "Cc1ccc(-c2ccc(N)nn2)cc1NC(=O)c1ccc(OCc2ccccn2)cc1", "logD": 2.47}
{"smiles": "Cc1ccc(-c2ncc(C)n2C)cc1NC(=O)c1ccc(OCc2ccccn2)cc1", "logD": 2.67}
{"smiles": "Cc1ccc(-c2cn(C)cn2)cc1NC(=O)c1ccc(OCc2ccccn2)cc1", "logD": 2.54}
{"smiles": "CC(=O)Nc1cc2c(ccn2-c2cc(NC3CC3)n3ncc(C#N)c3n2)cc1C", "logD": 2.66}
{"smiles": "CC(=O)Nc1ccc2[nH]cc(-c3cc(NC4CC4)n4ncc(C#N)c4n3)c2c1", "logD": 2.65}
{"smiles": "Cn1cncc1-c1c2c(=O)n(C)c(=O)n(CC3CC3)c2nn1Cc1ccnc2ccc(Cl)cc12", "logD": 2.69}
{"smiles": "Cn1cncc1-c1c2c(=O)n(CC#CCO)c(=O)n(CC3CC3)c2nn1Cc1ccnc2ccc(Cl)cc12", "logD": 2.55}
{"smiles": "Cc1cc(CNc2ncc(Cl)c(Nc3cc(C)[nH]n3)n2)on1", "logD": 2.68}
{"smiles": "Nc1nc(N)c(-c2ccc(NC(=O)C3CC3)cc2)c(COCc2ccccc2)n1", "logD": 2.46}
{"smiles": "CCCSc1ncccc1C(=O)N(C)[C@@H]1[C@@H]2CC3C[C@H]1C[C@@](O)(C3)C2", "logD": 2.49}
{"smiles": "CCCSc1ncccc1C(=O)N(C)[C@H]1[C@@H]2CC3C[C@H]1C[C@@](O)(C3)C2", "logD": 2.48}
{"smiles": "CCCSc1nc(NC[C@H]2CC[C@H](C(=O)O)CC2)ccc1C(=O)NC1CCCCC1", "logD": 2.61}
{"smiles": "Cc1cc(S(=O)(=O)N2CCN(C)CC2)ccc1-c1cnc(N)c(C(=O)Nc2cccnc2)n1", "logD": 2.6}
{"smiles": "CC1(O)CN(S(=O)(=O)c2ccc3c(C(=O)NC[C@@H](O)CN4CCC(Oc5ccc(Cl)c(Cl)c5)CC4)c[nH]c(=O)c3c2)C1", "logD": 2.54}
{"smiles": "O=C(Cc1ccccc1)Nc1nccs1", "logD": 2.5}
{"smiles": "Nc1n[nH]cc1-c1cc(C(F)(F)F)ccc1Oc1cc(F)c(S(=O)(=O)Nc2cscn2)cc1Cl", "logD": 2.65}
{"smiles": "CC(C)(c1cc(N2CCOCC2)nc(-c2cccc3[nH]ccc23)n1)S(C)(=O)=O", "logD": 2.65}
{"smiles": "C[C@H](NC(=O)C1(N)CCN(c2ncnc3[nH]ccc23)CC1)c1ccc(Cl)cc1", "logD": 2.67}
{"smiles": "CN1CC=CCC(c2cc3ccccc3o2)C1", "note": "(centres undefined)", "logD": 2.47}
{"smiles": "CCOc1ccccc1-c1ccc(-c2nc3ccc(F)cc3c(C(=O)NCCOCCN)c2C)cc1", "logD": 2.46}
{"smiles": "COCCN(C)Cc1ccc(Nc2ncc3cc(-c4ccncc4)ccc3n2)cc1", "logD": 2.65}
{"smiles": "COc1ccc(-c2ccc3c(N4CCOC[C@@H]4C)nc(-n4ccnc4)nc3n2)cc1CO", "logD": 2.6}
{"smiles": "Cn1c(N)nc(CCc2cccc(-c3cccnc3)c2)cc1=O", "logD": 2.5}
{"smiles": "Nc1nc(CCc2cccc(Br)c2)cc(=O)[nH]1", "logD": 2.52}
{"smiles": "Cc1sc(CN2CCNCC2)cc1C(=O)NCC12CC3CC(CC(C3)C1)C2", "logD": 2.55}
{"smiles": "Nc1ccc2ncnc(Nc3ccc(F)c(Cl)c3)c2c1", "logD": 2.64}
{"smiles": "Clc1cccc2[nH]ncc12", "logD": 2.5}
{"smiles": "CCOc1ccccc1-c1ccc(-c2nc3ccc(F)cc3c(N[C@H](C)C(=O)O)c2C#N)cc1", "logD": 2.5}
{"smiles": "COc1ccc2c(C)cc(N[C@H]3CCC[C@H](NCc4ccsc4)C3)nc2c1", "logD": 2.46}
{"smiles": "COc1ccc2c(C)cc(N[C@H]3CC[C@H](NCc4cn(C)c5ccccc45)C3)nc2c1", "logD": 2.53}
{"smiles": "COC(=O)c1nc2c(N[C@H](C)CO)nc(SCc3cccc(F)c3F)nc2[nH]c1=O", "logD": 2.49}
{"smiles": "Oc1cc(-c2ccccc2)nc2ccccc12", "logD": 2.54}
{"smiles": "CC(C)C(NC(=O)Cn1c(-c2ccccc2)ccc(NS(=O)(=O)NCc2ccccc2)c1=O)C(=O)C(F)(F)F", "note": "(centres undefined)", "logD": 2.57}
{"smiles": "COC(=O)CCCCCCC(=O)Nc1ccc2c(c1)-c1ccccc1C(=O)C2=O", "logD": 2.6}
{"smiles": "CCOc1ccccc1-c1ccc2c(c1)C(=O)C(=O)c1ccccc1-2", "logD": 2.67}
{"smiles": "COc1ccc(S(=O)(=O)Nc2ccc(-c3ccccc3)n(CC(=O)NC(C(=O)C(F)(F)F)C(C)C)c2=O)cc1", "note": "(centres undefined)", "logD": 2.5}
{"smiles": "C[C@@](O)(C(=O)Nc1ccc(C(=O)N2CCCCC2)cc1Cl)C(F)(F)F", "logD": 2.62}
{"smiles": "CNC(=O)C1(N2CCCCC2=O)CCN(CC[C@H](CN(C)C(=O)c2cc(C#N)cc3ccccc23)c2ccc(Cl)c(Cl)c2)CC1", "logD": 2.5}
{"smiles": "O=C1O[C@@H](COc2ccon2)CN1c1ccc(C2=CCOCC2)c(F)c1", "logD": 2.61}
{"smiles": "CN(C)C(=O)C1(N2CCCCC2=O)CCN(CC[C@H](CN(C)C(=O)c2cc(C#N)cc3ccccc23)c2ccc(Cl)c(Cl)c2)CC1", "logD": 2.52}
{"smiles": "Clc1ccc2c(c1Nc1ncnc3cc(OCCN4CCCC4)cc(OC4CCOCC4)c13)OCO2", "logD": 2.6}
{"smiles": "Cn1c(-c2ccncc2)cc2onc(-c3ccccc3)c2c1=O", "logD": 2.61}
{"smiles": "CCCCC(O)c1[nH]c2cc(C)c(C(=O)O)cc2c1CCc1ccccc1", "note": "(centres undefined)", "logD": 2.59}
{"smiles": "CN(CCOc1ccc(C[C@H](Nc2ccccc2C(=O)c2ccccc2)C(=O)O)cc1)c1nc2ccccc2o1", "logD": 2.47}
{"smiles": "COCCOc1cc2nccc(Nc3cc(O)c(Cl)cc3F)c2cc1OC", "logD": 2.64}
{"smiles": "CC(C)n1c(=O)n(C)c(=O)c2c(C(=O)N3CCS(=O)(=O)C3)c(Cc3ccccc3C(F)(F)F)sc21", "logD": 2.55}
{"smiles": "Cn1cc(S(C)(=O)=O)nc1-c1c2c(=O)n(C)c(=O)n(CC3CC3)c2nn1Cc1ccnc2ccc(Cl)cc12", "logD": 2.64}
{"smiles": "COc1cc2ncc(C(N)=O)c(Nc3ccc(F)cc3F)c2cc1NCCN1CCOCC1", "logD": 2.68}
{"smiles": "Cc1ncc(-c2ccnc(Nc3ccc(C(=O)N(C)C)cc3)n2)n1C(C)C", "logD": 2.45}
{"smiles": "O=C1C(=O)c2cccc([N+](=O)[O-])c2-c2ccccc21", "logD": 2.6}
{"smiles": "CNC(=O)c1ccc(Nc2nccc(-c3cnc(C)n3C(C)C)n2)cc1", "logD": 2.69}
{"smiles": "O=C(c1cc(Cc2n[nH]c(=O)c3ccccc23)ccc1F)N1CCN(c2ccccn2)CC1", "logD": 2.55}
{"smiles": "O=C(NCC1CCCCCC1)c1cc(-c2cccnc2N2CCC(C(=O)O)CC2)ccc1Cl", "logD": 2.53}
{"smiles": "Cn1cc(-c2cccc(C[C@H](NC(=O)c3cc(C(C)(C)C)nn3C)C(=O)NCC#N)c2)cn1", "logD": 2.6}
{"smiles": "COc1ccccc1-c1coc2cc(O)ccc2c1=O", "logD": 2.55}
{"smiles": "Cc1cc(Oc2ccnc(Nc3ccc(N4CCOCC4)cc3)c2)c(-c2ccccn2)nc1C", "logD": 2.59}
{"smiles": "O=C1Nc2ccc(S(=O)(=O)N3CCC[C@H]3COc3ccccc3)cc2C1=O", "logD": 2.7}
{"smiles": "c1ccc(-c2nc3ccccc3[nH]2)nc1", "logD": 2.5}
{"smiles": "CN1CC(=O)N2[C@H](c3ccc4c(c3)OCO4)c3[nH]c4ccccc4c3C[C@@H]2C1=O", "logD": 2.6}
